Test results from patent US4711245A, “Sensor for components of a liquid mixture” (Genetics International, Inc., priority 1983, dated 1987).
Where a name gives a salt, the structure may show the parent alone.

Columns and labels:
[1] = molecular target: T1, glucose enzyme electrode (glucose oxidase) (Aspergillus niger, UniProt P13006); test: steady-state current response of the 1,1'-dimethylferrocene/glucose oxidase enzyme electrode (interfering substances, KM'); details: for interference to the electrodes response to glucose: added at normal blood concentration
T1 construct: purchased Boehringer Mannheim

glucose oxidase [2] = molecular target: T2, glucose oxidase (Aspergillus niger, UniProt P13006); test: substrate kinetics of glucose oxidase (relative rate, Km); format: biochemical; details: substrates for glucose oxidase; β-D-glucose 100
[3] = dc cyclic voltammetry of ferrocene derivatives (redox potential); format: physicochemical; details: for Eo: vs a standard calomel electrode, phosphate buffer at pH 7.0
glucose oxidase [4] = molecular target: T2, glucose oxidase; details: cited from earlier work
[5] = vs NHE; cited from earlier work
[6] = spectrophotometric measurement (E, cm^-1 M^-1); format: physicochemical
Experimental: All optical spectra were recorded with a Pye-Unicam SP8 200 spectrophotometer with the sample and reference solutions in matched quartz micro-cuvettes of path length 1 cm.

glucose oxidase [7] = molecular target: T2, glucose oxidase; format: biochemical; details: pH 7
glucose oxidase [8] = molecular target: T2, glucose oxidase; details: non-immobilized enzyme; cited from earlier work

T1 sequence (P13006 23-605 limits assumed): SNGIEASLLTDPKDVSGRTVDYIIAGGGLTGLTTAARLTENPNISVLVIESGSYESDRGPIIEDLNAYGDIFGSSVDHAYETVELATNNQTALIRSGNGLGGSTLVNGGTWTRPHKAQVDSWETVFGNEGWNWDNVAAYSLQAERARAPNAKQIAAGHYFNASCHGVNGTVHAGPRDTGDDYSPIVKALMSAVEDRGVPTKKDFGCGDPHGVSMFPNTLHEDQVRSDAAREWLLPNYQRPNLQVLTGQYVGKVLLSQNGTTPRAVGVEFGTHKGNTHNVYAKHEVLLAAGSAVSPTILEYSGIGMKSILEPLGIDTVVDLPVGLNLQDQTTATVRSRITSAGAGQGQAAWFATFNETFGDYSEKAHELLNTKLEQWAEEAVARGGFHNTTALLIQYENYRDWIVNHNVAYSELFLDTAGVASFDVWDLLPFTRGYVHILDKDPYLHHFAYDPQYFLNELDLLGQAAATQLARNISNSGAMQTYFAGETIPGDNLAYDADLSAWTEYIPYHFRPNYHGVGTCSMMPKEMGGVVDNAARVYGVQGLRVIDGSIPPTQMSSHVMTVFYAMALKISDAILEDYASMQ
T2 sequence (P13006 23-605): as the sequence (P13006 23-605 limits assumed) above

OC[C@H]1O[C@H](O)[C@H](O)[C@@H](O)[C@H]1O [α-galactose]
interference to the electrodes response to glucose ([1]; 8 mM glucose): did not cause any observable interference

OC[C@H]1O[C@@H](O)[C@H](O)[C@@H](O)[C@@H]1O [β-D-glucose]
Relative Rate (glucose oxidase [2]): 100

OC1OC[C@@H](O)[C@H](O)[C@H]1O (stereo partly drawn) [D-xylose]
interference to the electrodes response to glucose ([1]; 8 mM glucose): did not cause any observable interference

1,1'-ferrocene dicarboxylic acid [1,1'-dicarboxylic acid]
Eo' ([3]; Example 4, procedure of Example 3, saturated calomel reference): +420 mV | Eo [3]: 385 mV

OC[C@H]1O[C@H](O)[C@@H](O)[C@@H](O)[C@@H]1O [α-mannose]
interference to the electrodes response to glucose ([1]; 8 mM glucose): did not cause any observable interference

O=O [molecular oxygen]
ks, rate of reaction of the natural electron acceptor with glucose oxidase (glucose oxidase [4]): 10^6 M^-1 S^-1

Cl.N[C@@H](CS)C(=O)O [L-cysteine HCl]
interference to the electrodes response to glucose ([1]; 8 mM glucose): did not cause any observable interference

[Fe+2].c1cc[cH-]c1.c1cc[cH-]c1 [ferrocene]
redox potential [5]: +422 mV | Eo [3]: 165 mV | E [6]: 335 cm⁻¹ M⁻¹

vinyl ferrocene [vinyl-]
Rates of glucose oxidase oxidation (glucose oxidase [7]): 18 | Eo/mV vs SCE ([3]; pH 7): 250 mV

OC[C@H]1OC(O)C[C@@H](O)[C@@H]1O (stereo partly drawn) [2-deoxy-D-glucose]
Relative Rate (glucose oxidase [2]): 25

N[C@@H](CCC(=O)N[C@@H](CS)C(=O)NCC(=O)O)C(=O)O [reduced glutathione]
interference to the electrodes response to glucose ([1]; 8 mM glucose): did not cause any observable interference

OC[C@H]1OC(O)[C@@H](O)[C@@H](O)[C@@H]1O (stereo partly drawn) [D-mannose]
Relative Rate (glucose oxidase [2]): 1

OC[c-]1cccc1.OC[c-]1cccc1.[Fe+2] [1,1'bis(hydroxymethyl)-]
Eo [3]: 224 mV | E [6]: 385 cm⁻¹ M⁻¹

OC[C@H]1OC(O)[C@H](O)[C@@H](O)[C@@H]1O (some centres unmarked) [Glucose]
Km ([1]; glucose oxidase immobilized on the prototype ferrocene-based electrodes, kinetically-controlled, read-out: apparent Michaelis-Menten constant KM'): 30 to 40 mM | Km (glucose oxidase [8]): 3 mM

1,1'-dimethylferrocene [1,1'-dimethyl-]
Eo [3]: 100 mV

6-methyl-D-glucose
Relative Rate (glucose oxidase [2]): 2

O=C1O[C@H]([C@@H](O)CO)C(O)=C1O [L-ascorbate]
mean increase in current ([1]; 8 mM glucose, final concentration of 0.13 mM): ca. 4.0%

OC[C@H]1O[C@H](O)[C@H](O)[C@@H](O)[C@@H]1O [α-D-glucose]
Relative Rate (glucose oxidase [2]): 0.6

O=CO [sodium formate]
interference to the electrodes response to glucose ([1]; 8 mM glucose): did not cause any observable interference

Cl[c-]1cccc1.[Fe+2].c1cc[cH-]c1 [chloro-]
Eo [3]: 345 mV
